The text below walks through data of patent US6576640B1, “Benzisoxazoles and phenones as α2-antagonists” (Janssen Pharmaceutica N.V., priority 1998, dated 2003).

The term pIC50 denotes the IC50 on a negative log10 scale, so that one unit is a factor of ten. A word on the melting point: it is the temperature, or range, at which the solid turns liquid.

Series [1] has as its target T1, cloned human α2A receptors (Homo sapiens, UniProt P08913).
T1 construct: expressed in transfected cells; host or cells: Chinese Hamster Ovary (CHO) cells
T1 sequence (P08913 1-465): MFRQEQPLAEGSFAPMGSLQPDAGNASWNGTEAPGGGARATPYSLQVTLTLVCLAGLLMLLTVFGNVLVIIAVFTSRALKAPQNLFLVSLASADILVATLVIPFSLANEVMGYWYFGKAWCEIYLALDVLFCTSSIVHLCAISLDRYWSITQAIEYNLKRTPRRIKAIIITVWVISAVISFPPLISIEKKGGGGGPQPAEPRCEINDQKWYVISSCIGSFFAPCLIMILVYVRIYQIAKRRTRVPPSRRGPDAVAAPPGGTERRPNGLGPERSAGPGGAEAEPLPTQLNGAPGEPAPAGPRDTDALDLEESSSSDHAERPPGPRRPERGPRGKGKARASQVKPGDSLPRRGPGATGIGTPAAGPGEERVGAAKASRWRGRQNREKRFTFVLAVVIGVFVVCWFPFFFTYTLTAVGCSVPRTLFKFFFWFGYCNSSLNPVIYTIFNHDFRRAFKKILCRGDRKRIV
The series can be described thus: In vitro radioligand binding affinity for α2A receptor (3H-rauwolscine competition). The settings on record: read-out: dissociation: IC50 value for the α2a receptor. Here is the method:
The interaction of the compounds of formula (I) with α2 receptors was assessed in in vitro radioligand binding experiments.
In general, a low concentration of a radioligand with a high binding affinity for a particular receptor is incubated with a sample of a tissue preparation enriched in a particular receptor or with a preparation of cells expressing cloned human receptors in a buffered medium. During the incubation, the radioligand binds to the receptor. When equilibrium of binding is reached, the receptor bound radioactivity is separated from the non-bound radioactivity, and the receptor bound activity is counted. The interaction of the test compounds with the receptor is assessed in competition binding experiments. Various concentrations of the test compound are added to the incubation mixture containing the receptor preparation and the radioligand. Binding of the radioligand will be inhibited by the test compound in proportion to its binding affinity and its concentration.
The radioligand used for α2A, α2B and α2C receptor binding is ^3H-rauwolscine and the receptor preparation used is the Chinese Hamster Ovary (CHO) cell expressing cloned human α2A, α2B and α2C receptors.

The target of series [2] is dopamine D2 receptor (Homo sapiens, UniProt P14416). The series can be described thus: Receptor binding affinity for dopamine D2 (dissociation α2a / D2). The settings on record: for Ratio D2/α2a (dissociation between the two receptors): ratio of IC50 D2 to IC50 α2a; for pIC50: receptor binding affinity, dopamine D2. The source says:
As already mentioned above, dopamine D2 antagonism may lead to an increased risk of EPS. Thus, the larger the dissociation between α2a and D2, the better. The columns headed “dissociation” show the IC50 value in molar (M) for the α2a receptor and the D2 receptor. By “Ratio” is meant the ratio D2/αa and this is an indication for the dissociation between said two receptors.

Molecules are shown by their SMILES. pIC50: −log10 of the molar value.

dopamine D2 receptor, sequence (P14416 whole entry, species assumed): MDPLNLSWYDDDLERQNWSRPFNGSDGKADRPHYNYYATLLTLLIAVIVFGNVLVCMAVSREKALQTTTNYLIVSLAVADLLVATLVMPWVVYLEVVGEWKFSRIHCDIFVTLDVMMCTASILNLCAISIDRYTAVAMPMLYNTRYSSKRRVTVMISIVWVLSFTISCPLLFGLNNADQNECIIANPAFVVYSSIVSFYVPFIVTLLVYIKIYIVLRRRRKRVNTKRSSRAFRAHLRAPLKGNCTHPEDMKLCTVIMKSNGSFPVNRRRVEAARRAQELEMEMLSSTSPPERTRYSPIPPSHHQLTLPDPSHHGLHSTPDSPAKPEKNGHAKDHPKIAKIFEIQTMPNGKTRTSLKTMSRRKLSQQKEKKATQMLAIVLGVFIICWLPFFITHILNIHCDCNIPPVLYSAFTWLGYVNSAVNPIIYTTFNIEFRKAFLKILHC

On to `O=C(CCCCCN1CCc2[nH]c3ccccc3c2C1)c1ccc(F)cc1` [Comp. 1], for which the melting point was 190 °C. Further, in series [1], the negative logarithm of the IC50 (pIC50) is 8.30. Further, in series [2], the “Ratio D2/α2a (dissociation between the two receptors)” value (“Ratio D2/α2a” below) is on record as 79 and the pIC50 was 6.40.

Regarding `O=C(CCCCCN1CCc2oc3ccccc3c2C1)c1ccc(F)cc1` [Comp. 2, 1-(4-fluorophenyl)-6-(1,2,3,4-tetrahydrobenzofuro[3,2-c]pyridin-2-yl)-1-hexanone (E)-2-butenedioate (1:1)], the negative-log IC50 (pIC50) in series [1] is 9.59. Moreover, in series [2], the “Ratio D2/α2a” value came out at 1950 and the pIC50 is 6.30.

Regarding `O=C(CCCN1CCc2[nH]c3ccccc3c2C1)c1ccc(F)cc1` [reference compound], the negative-log IC50 (pIC50) in series [1] is 7.39. For the same compound, in series [2], the “Ratio D2/α2a” value is 2.5 and the pIC50 was 7.00.

As for `O=C(CCCN1CCc2oc3ccccc3c2C1)c1ccc(F)cc1` [reference compound], in series [1], the negative logarithm of the IC50 (pIC50) was 8.68. Also, in series [2], the “Ratio D2/α2a” value is 102 and the pIC50 was 6.68.
